For the assay, the target named is T1, bovine stomach NK-2 receptor (Bos taurus, UniProt P05363).
T1 construct: expressed in transfected cells; host or cells: SKLKB82#3 (mouse fibroblast cell line)
T1 sequence (P05363 1-384): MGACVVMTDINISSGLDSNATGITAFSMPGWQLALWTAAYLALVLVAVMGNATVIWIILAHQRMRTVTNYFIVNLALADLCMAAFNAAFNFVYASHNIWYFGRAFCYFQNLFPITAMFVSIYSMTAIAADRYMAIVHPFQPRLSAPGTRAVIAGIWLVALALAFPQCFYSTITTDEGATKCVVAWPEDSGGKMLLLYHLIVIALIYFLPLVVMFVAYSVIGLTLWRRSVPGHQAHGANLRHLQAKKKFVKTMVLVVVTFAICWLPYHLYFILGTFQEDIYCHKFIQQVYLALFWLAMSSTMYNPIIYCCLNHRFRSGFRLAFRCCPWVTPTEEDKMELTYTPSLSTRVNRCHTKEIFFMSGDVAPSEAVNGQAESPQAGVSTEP
The experiment in a line: Antagonism of NK-2 receptor mediated phosphatidylinositol turnover in SKLKB82#3 cells. It counts as cell-based. The settings on record: Schild regression vs NKA, 95% confidence limits 8.22 to 8.69, read-out: pA2 (converted). Here is the method:
Cultured SKLKB82#3 (bovine stomach NK-2 receptor transfected into mouse fibroblast cell line) cells were seeded onto 24-well plates at 125,000 cells/well, two-three days prior to assay. Cells were loaded with 0.5 ml of 0.2 μM myo[2-^3 H(N)] inositol (American Radiolabeled Chemicals Inc., specific activity, 20 Ci/mmol) 20-24 hrs prior to assay. Cultured cells were maintained at 37° C. in a 5% CO2 environment. On the day of the assay, media was aspirated and the cells incubated in D-MEM/F-12 media containing 40 μg/ml bacitracin, 4 μg/ml each of leupeptin and chymostatin, 0.1% bovine serum albumin and 1 μM thiorphan and 10 mM LiCl. After 15 min., cyclo[Tyr-trp-Leu-Arg-Trp-Gly] SEQ. ID 6 (concentration range 0.3 nM -10 μM) was added to the cells in a volume of 0.1 ml. […] The third elution was collected and counted in 9 ml scintillation fluid. A 50 μl aliquot of the organic (bottom) phase was removed, dried in a scintillation vial and counted in 7 ml scintillation fluid.
The ratio of DPM in the aqueous phase aliquot (total inositol phosphates) to the DPM in the 50 μl organic phase aliquot (total [^3 H]-inositol incorporated) was calculated for each sample. Data are expressed as a percent of agonist-induced accumulation of [3H]-inositol phosphates over basal leTels. […]

The structures appear in SMILES notation. Where a SMILES comes first, the peptide text is derived from it. [ ]: non-standard residue; d: D form.

`CC(C)C[C@@H]1NC(=O)[C@@H](Cc2c[nH]c3ccccc23)NC(=O)[C@H](Cc2ccc(O)cc2)NC(=O)CNC(=O)[C@H](Cc2c[nH]c3ccccc23)NC(=O)[C@H](CCCNC(=N)N)NC1=O` [cyclo[Tyr--trp--Leu--Arg--Trp--Gly], cyclo[Tyr-trp-Leu-Arg-Trp-Gly]] (cyclo(GY[dW]LRW)): the Kb was 3.55 nM.

The record behind these values is patent US5521156A, “Cyclic neurokinin A antagonists” (priority 1994, dated 1996).
